Reference: US20040063736A1, “Combination of active ingredients containing alfuzosine and apomorphine” (priority 2001, published 2004)

Test system: hypertensive rats (SHR)
Experiment: Erectile responses (number of erections, intracavernous pressure) in anaesthetised hypertensive rats
Conditions: for N animals with erections/N animals / Number of erections (mean ± sem): 30 min after infusion
[1] = alfuzosine 3, 10 or 30 μg/kg alone (i.v. infusion)
[2] = Table 2, apomorphine 50 μg/kg alone
[3] = apomorphine 10 μg/kg s.c. + 5% glucose infusion
[4] = apomorphine 20 μg/kg s.c. + 5% glucose infusion
[5] = apomorphine 50 μg/kg s.c. + 5% glucose infusion
[6] = apomorphine 100 μg/kg s.c. + 5% glucose infusion
[7] = apomorphine 250 μg/kg s.c. + 5% glucose infusion

**Q.** Which results are given for `COc1cc2nc(N(C)CCCNC(=O)C3CCCO3)nc(N)c2cc1OC` (stereo not shown) [Alfuzosine]?
**A.** AUC [1]: 0 mmHg · sec; Duration of erection [1]: 0 s; n animal with erections/n animal [1]: 0/6; number of erections [1]: 0; ΔICP [1]: 0 mmHg; induction of erections per se (alfuzosine 3 to 100 μg/kg i.v. after vehicle of apomorphine): Neither 5% glucose nor alfuzosine (3 to 100 μg/kg i.v.) was able to induce per se erections

**Q.** How did the AUC [2] turn out when `CN1CCc2cccc3c2[C@H]1Cc1ccc(O)c(O)c1-3` [Apomorphine] was run?
**A.** The AUC was 640 ± 216 mmHg · sec.

**Q.** What about the Duration of erection [2] of the same molecule?
**A.** The Duration of erection was 105 ± 23 s.

**Q.** And the “n animal with erections/n animal” value [2]?
**A.** Its value is 9/9.

**Q.** What about the number of erections [2] of the same molecule?
**A.** The number of erections was 2.6 ± 0.4.

**Q.** What about the “ΔICP” value [2] of the same molecule?
**A.** The value was 29 ± 7 mmHg.

**Q.** And the AUC [3]?
**A.** The AUC was 0 mmHg · sec.

**Q.** And the Duration [3]?
**A.** Its Duration is 0 s.

**Q.** And the ΔICP [3]?
**A.** The ΔICP was 0 mmHg.

**Q.** What about the “N animals with erections/N animals” value [3] of the same molecule?
**A.** The value was 0/8.

**Q.** What about the “Number of erections (mean ± sem)” value [3] of the same molecule?
**A.** Its value is 0.

**Q.** And the AUC [4]?
**A.** The AUC was 582 ± 172 mmHg · sec.

**Q.** What about the Duration [4] of the same molecule?
**A.** Its Duration is 61 ± 7 s.

**Q.** And the ΔICP [4]?
**A.** The ΔICP was 41.4 ± 13.9 mmHg.

**Q.** What about the “N animals with erections/N animals” value [4] of the same molecule?
**A.** Its value is 5/10.

**Q.** What about the “Number of erections (mean ± sem)” value [4] of the same molecule?
**A.** The value was 0.5000.

**Q.** And the AUC [5]?
**A.** Its AUC is 640 ± 215 mmHg · sec.

**Q.** And the Duration [5]?
**A.** The Duration was 105 ± 23 s.

**Q.** And the ΔICP [5]?
**A.** Its ΔICP is 29.3 ± 6.5 mmHg.

**Q.** And the “N animals with erections/N animals” value [5]?
**A.** The value was 9/9.

**Q.** What about the “Number of erections (mean ± sem)” value [5] of the same molecule?
**A.** Its value is 2.5556.

**Q.** And the AUC [6]?
**A.** Its AUC is 501 ± 193 mmHg · sec.

**Q.** What about the Duration [6] of the same molecule?
**A.** The Duration was 71 ± 19 s.

**Q.** What about the ΔICP [6] of the same molecule?
**A.** The ΔICP was 25.5 ± 8.2 mmHg.

**Q.** And the “N animals with erections/N animals” value [6]?
**A.** The value was 9/9.

**Q.** And the “Number of erections (mean ± sem)” value [6]?
**A.** The value was 3.1111.

**Q.** What about the AUC [7] of the same molecule?
**A.** Its AUC is 1073 ± 237 mmHg · sec.

**Q.** What about the Duration [7] of the same molecule?
**A.** The Duration was 71 ± 19 s.

**Q.** What about the ΔICP [7] of the same molecule?
**A.** Its ΔICP is 58.6 ± 9.7 mmHg.

**Q.** And the “N animals with erections/N animals” value [7]?
**A.** The value was 6/6.

**Q.** And the “Number of erections (mean ± sem)” value [7]?
**A.** Its value is 5.0000.

**Q.** What about the erectile responses (apomorphine 10-250 μg/kg s.c.) of the same molecule?
**A.** Its erectile responses is “induced concentration-dependent erectile responses”.

**Q.** What about the “first dose triggering erections in some animals in comparison to the control group” value (apomorphine s.c.) of the same molecule?
**A.** Its value is 0.02 mg/kg.

**Q.** And the “first dose which induced at least one erectile event in all the animals” value (apomorphine s.c.)?
**A.** Its value is 0.05 mg/kg.

**Q.** And the number of erections (text b79, apomorphine 50 μg/kg alone)?
**A.** Its number of erections is 2.6±0.4.
